Laboratory results published in patent EP2132185B1, “PYRIMIDINYL-PIPERAZINES USEFUL AS DOPAMINE D3/D2 RECEPTOR LIGANDS” (Richter Gedeon Nyrt., priority 2007, dated 2008).

Tests used:
[1] = biological target: T1, D2 receptor (Rattus norvegicus, UniProt P61169); experiment: D2 receptor binding ([3H]spiperone, rat brain striatal membrane preparation); conditions: for Ki: rat brain striatal membrane preparation, [3H]spiperone
T1 construct: on rat brain striatal membrane preparation; from tissue; host or cells: rat brain striatum membranes
T1 sequence (P61169 whole entry): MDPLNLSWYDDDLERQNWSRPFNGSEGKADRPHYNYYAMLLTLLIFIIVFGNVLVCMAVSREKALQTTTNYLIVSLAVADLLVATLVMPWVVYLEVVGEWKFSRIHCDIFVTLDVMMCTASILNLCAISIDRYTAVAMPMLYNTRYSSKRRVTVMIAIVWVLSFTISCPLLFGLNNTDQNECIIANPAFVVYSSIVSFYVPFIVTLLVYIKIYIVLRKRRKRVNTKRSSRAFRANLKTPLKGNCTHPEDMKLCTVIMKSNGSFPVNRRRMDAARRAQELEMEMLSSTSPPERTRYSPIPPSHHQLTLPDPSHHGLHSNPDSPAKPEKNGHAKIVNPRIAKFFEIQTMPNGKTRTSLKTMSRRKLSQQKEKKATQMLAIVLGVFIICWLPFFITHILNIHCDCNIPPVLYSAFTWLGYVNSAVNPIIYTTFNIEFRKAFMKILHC

[2] = biological target: Alpha-1 receptor; experiment: Alpha-1 receptor binding ([3H]-prazosine, rat cortical membrane preparation); conditions: for Ki: rat cortical membrane preparation, [3H]-prazosine, read-out: α-1 Ki
[3] = test system: male Wistar rats; experiment: Amphetamine-induced hypermotility; assay type: in vivo; conditions: Rattus norvegicus, 1 h, oral administration one hour before d-amphetamine 0.5 mg/kg sc., read-out: Inhibition of amphetamine-induced hypermotility (ED50, mg/kg)
Description: 4. Amphetamine-Induced Hypermotility
One hour after the oral administration of doses of the test compound or vehicle, male Wistar rats were subcutaneously treated with d-amphetamine (0.5 mg/kg, sc.) and were individually placed in activity cages for one hour. Locomotor activity was measured in a four-channel activity monitor equipped with infrared photobeams Horizontal movement was determined as the number of beam interruptions. Mean ± SE of horizontal activity data of each group was calculated. Percent inhibition of amphetamine-induced increase in locomotion was calculated for each dose of the tested compound. The ED-50 value was determined by linear regression fitted to the dose-response plot.

[4] = test system: male Wistar rats; experiment: Scopolamine-induced learning disturbance in the water-labyrinth; assay type: in vivo, rat; conditions: scopolamine 3 mg/kg ip., negative values mean further impairment
Description: 6. Scopolamine-Induced Learning Disturbance in the Water-Labyrinth
The learning process of rats was assessed in a 3-choice point water-labyrinth system. The number of directional turning errors was recorded in three daily trials for three experimental days. Male Wistar rats weighing 180-200 g (n=10 per groups) were treated orally with vehicle or the test compounds 1 hour before each daily session. Scopolamine (3 mg/kg ip.) as amnestic agent was injected 30 minutes prior to the first daily trial. Mean ± SE of errors committed in all the trials was calculated in each group. Percent inhibition of scopolamine-induced increase in the number of errors was calculated for each dose of the tested compound.

[5] = test system: male Wistar rats; experiment: Catalepsy test; assay type: in vivo, rat; conditions: for Catalepsy (MED, mg/kg): oral treatment, rats, minimum effective (cataleptic) dose
[6] = biological target: T2, rat recombinant D3 receptors (Rattus norvegicus, UniProt P19020); experiment: D3 receptor binding ([3H]spiperone); conditions: rat recombinant D3 receptors expressed in Sf9 cells
T2 construct: purchased Perkin-Elmer 6110139; host or cells: Sf9 cells
T2 sequence (P19020 whole entry): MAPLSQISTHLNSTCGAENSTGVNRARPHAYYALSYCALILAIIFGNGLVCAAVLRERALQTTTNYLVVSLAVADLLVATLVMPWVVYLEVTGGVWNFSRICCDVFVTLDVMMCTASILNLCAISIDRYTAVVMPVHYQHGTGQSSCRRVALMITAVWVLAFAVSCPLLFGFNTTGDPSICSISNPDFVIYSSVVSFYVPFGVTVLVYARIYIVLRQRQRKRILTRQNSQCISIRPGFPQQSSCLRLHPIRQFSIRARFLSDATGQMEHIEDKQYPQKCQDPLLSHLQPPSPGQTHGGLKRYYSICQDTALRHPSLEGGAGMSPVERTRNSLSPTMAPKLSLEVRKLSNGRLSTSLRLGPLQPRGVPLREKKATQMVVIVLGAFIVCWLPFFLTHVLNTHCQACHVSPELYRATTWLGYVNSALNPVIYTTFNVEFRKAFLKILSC

D2 Sel. (D2/D3 selectivity, i.e., Ki for D2 receptor divided by Ki for D3 receptor) [1]	Ki [2] [µM]	Ki [1] [µM]	Ki [6] [µM]	Structure (SMILES)	ED50 [3] [mg/kg]	also measured
27	> 1	0.015 to 0.05	0.001 to 0.003	CNc1nc(Cl)c(Cl)c(N2CCN(CC[C@H]3CC[C@H](NC(N)=O)CC3)CC2)n1 [Compound 2, Trans-(4-{2-[4-(5,6-dichloro-2-methylamino-pyrimidin-4-yl)-piperazin-1-yl]-ethyl}-cyclohexyl)-urea]		
23	> 1	0.015 to 0.05	0.001 to 0.003	CCNc1nc(Cl)c(Cl)c(N2CCN(CC[C@H]3CC[C@H](NC(C)=O)CC3)CC2)n1 [Compound 6, trans-N-(4-{2-[4-(5,6-dichloro-2-ethylamino-pyrimidin-4-yl)-piperazin-1-yl]-ethyl}-cyclohexyl)-acetamide]		
	> 1		0.001 to 0.003	CNc1nc(Cl)c(Cl)c(N2CCN(CC[C@H]3CC[C@H](NC(=O)N4CCOCC4)CC3)CC2)n1 [Compound 7, trans-morpholine-4-carboxylic acid (4-{2-[4-(5,6-dichloro-2-methylamino-pyrimidin-4-yl)-piperazin-1-yl]-ethyl}-cyclohexyl)-amide]		
7	> 1	0.015 to 0.05	0.001 to 0.003	CNc1nc(Cl)c(Cl)c(N2CCN(CCC3CCC(NC(=O)N(C)C)CC3)CC2)n1 (stereo not drawn) [Compound 8, trans-3-(4-{2-[4-(5,6-dichloro-2-methylamino-pyrimidin-4-yl)-piperazin-1-yl]-ethyl}-cyclohexyl-1,1-dimethyl-urea]	0.14	% inhibition ([4]; Dose 0.025 mg/kg orally): 38%; % inhibition ([4]; Dose 0.05 mg/kg orally): 65%; % inhibition ([4]; Dose 1 mg/kg orally): 31%; TI (therapeutic index - catalepsy MED divided by amphetamine hypermotility ED50) [5]: >179; Catalepsy (MED, mg/kg) [5]: >25 mg/kg
17	> 1	0.005 to 0.015	< 0.001	CCNC(=O)N[C@H]1CC[C@H](CCN2CCN(c3nc(NC)nc(Cl)c3Cl)CC2)CC1 [Compound 10, Trans-1-(4-{2-[4-(5,6-dichloro-2-methylamino-pyrimidin-4-yl)-piperazin-1-yl]-ethyl}-cyclohexyl)-3-ethyl-urea]		
43	> 1	0.005 to 0.015	< 0.001	CCC(=O)NC1CCC(CCN2CCN(c3nc(NC)nc(Cl)c3Cl)CC2)CC1 (stereo not drawn) [Compound 11, trans-N-(4-{2-[4-(5,6-dichloro-2-methylamino-pyrimidin-4-yl)-piperazin-1-yl]-ethyl}-cyclohexyl-propionamide]		
				Cc1cc2c(s1)Nc1ccccc1N=C2N1CCN(C)CC1 [Olanzapine, reference compound]	1.8	% inhibition ([4]; Dose 1 mg/kg orally): -12%; % inhibition ([4]; Dose 3 mg/kg orally): -49%
				Cc1nc2n(c(=O)c1CCN1CCC(c3noc4cc(F)ccc34)CC1)CCCC2 [Risperidone, reference compound]	0.15	α-1 Sel. ([2]; selectivity column under α-1): 0.07; % inhibition ([4]; Dose 0.5 mg/kg orally): -15%

Structure (SMILES)	D2 Sel. (D2/D3 selectivity, i.e., Ki for D2 receptor divided by Ki for D3 receptor) [1]	Ki [2] [µM]	Ki [1] [µM]	Ki [6] [µM]	ED50 [3] [mg/kg]	also measured
CNc1nc(Cl)c(Cl)c(N2CCN(CC[C@H]3CC[C@H](NC(C)=O)CC3)CC2)n1 [Compound 1, Tran-N-(4-{2-[4-(5,6-dichloro-2-methylamino-pyrimidin-4-yl)-piperazin-1-yl]-ethyl}-cyclohexyl)-acetamide]	22	> 1			0.14	% inhibition ([4]; Dose 0.1 mg/kg orally): 36%; % inhibition ([4]; Dose 0.2 mg/kg orally): 58%; % inhibition ([4]; Dose 0.4 mg/kg orally): 61%; % inhibition ([4]; Dose 0.8 mg/kg orally): 44%; TI (therapeutic index - catalepsy MED divided by amphetamine hypermotility ED50) [5]: 714; Catalepsy (MED, mg/kg) [5]: 100 mg/kg
